Laboratory results published in ChEMBL document CHEMBL3407485, “Design, synthesis and pharmacological evaluation of novel N-(2-(1, 1-dimethyl-5, 7-dioxo-4, 6-diazaspiro[2.4]heptan-6-yl)ethyl) sulfonamide derivatives as potential anticonvulsant agents” (Eur J Med Chem, 2015).
Calls of active or inactive are those of the source. No cut-off for these calls is given here.

Legend:
Mus musculus [1] = assay: Neurotoxicity in Kunming mouse assessed as motor impairment at 300 mg/kg, ip after 0.5 hrs by standardized rotarod test; assay type: toxicity, organism-based; design: dose 300 mg/kg, route intraperitoneal; settings: in vivo
Mus musculus [2] = assay: Neurotoxicity in Kunming mouse assessed as motor impairment at 300 mg/kg, ip after 4 hrs by standardized rotarod test; assay type: toxicity, organism-based; design: dose 300 mg/kg, route intraperitoneal; settings: in vivo
Mus musculus [3] = assay: Anticonvulsant activity in Kunming mouse assessed as protection against maximal electroshock-induced seizures measured as abolition of hind limb tonic extension spasm at 300 mg/kg, ip after 4 hrs; assay type: functional, organism-based; design: dose 300 mg/kg; settings: Hindlimb
Mus musculus [4] = assay: Anticonvulsant activity in Kunming mouse assessed as protection against subcutaneous pentylenetetrazole-induced seizures at 300 mg/kg, ip after 0.5 hrs; assay type: functional, organism-based; design: dose 300 mg/kg
Mus musculus [5] = assay: Anticonvulsant activity in Kunming mouse assessed as protection against subcutaneous pentylenetetrazole-induced seizures at 300 mg/kg, ip after 4 hrs; assay type: functional, organism-based; design: dose 300 mg/kg
Mus musculus [6] = assay: Anticonvulsant activity in Kunming mouse assessed as protection against maximal electroshock-induced seizures measured as abolition of hind limb tonic extension spasm at 300 mg/kg, ip after 0.5 hrs; assay type: functional, organism-based; design: dose 300 mg/kg; settings: Hindlimb
Mus musculus [7] = assay: Anticonvulsant activity in Kunming mouse assessed as protection against maximal electroshock-induced seizures measured as abolition of hind limb tonic extension spasm at 100 mg/kg, ip after 4 hrs; assay type: functional, organism-based; design: dose 100 mg/kg; settings: Hindlimb
Mus musculus [8] = assay: Anticonvulsant activity in Kunming mouse assessed as protection against maximal electroshock-induced seizures measured as abolition of hind limb tonic extension spasm at 100 mg/kg, ip after 0.5 hrs; assay type: functional, organism-based; design: dose 100 mg/kg; settings: Hindlimb
Mus musculus [9] = assay: Neurotoxicity in Kunming mouse assessed as motor impairment at 100 mg/kg, ip after 0.5 hrs by standardized rotarod test; assay type: toxicity, organism-based; design: dose 100 mg/kg, route intraperitoneal; settings: in vivo
[10] = Neurotoxicity in ip dosed Kunming mouse assessed as motor impairment after 4 hrs by standardized rotarod test; assay type: toxicity, organism-based; settings: in vivo
Mus musculus [11] = assay: Protective index, ratio of TD50 for neurotoxicity in ip dosed Kunming mouse to ED50 for protection against maximal electroshock-induced seizure in ip dosed Kunming mouse; assay type: functional
Mus musculus [12] = assay: Anticonvulsant activity in ip dosed Kunming mouse assessed as protection against maximal electroshock-induced seizures measured as abolition of hind limb tonic extension spasm after 0.5 hrs; assay type: functional; settings: Hindlimb
Mus musculus [13] = assay: Anticonvulsant activity in Kunming mouse assessed as protection against maximal electroshock-induced seizures measured as abolition of hind limb tonic extension spasm at 30 mg/kg, ip after 0.5 hrs; assay type: functional, organism-based; design: dose 30 mg/kg; settings: Hindlimb
Mus musculus [14] = assay: Anticonvulsant activity in Kunming mouse assessed as protection against maximal electroshock-induced seizures measured as abolition of hind limb tonic extension spasm at 30 mg/kg, ip after 4 hrs; assay type: functional, organism-based; design: dose 30 mg/kg; settings: Hindlimb
Mus musculus [15] = assay: Anticonvulsant activity in Kunming mouse assessed as protection against subcutaneous pentylenetetrazole-induced seizures at 100 mg/kg, ip after 0.5 hrs; assay type: functional, organism-based; design: dose 100 mg/kg
Mus musculus [16] = assay: Neurotoxicity in Kunming mouse assessed as motor impairment at 100 mg/kg, ip after 4 hrs by standardized rotarod test; assay type: toxicity, organism-based; design: dose 100 mg/kg, route intraperitoneal; settings: in vivo

| Structure (SMILES) | Activity (Mus musculus [1]) | Activity (Mus musculus [2]) | Activity (Mus musculus [3]) | Activity (Mus musculus [4]) | Activity (Mus musculus [5]) | Activity (Mus musculus [6]) | Activity (Mus musculus [7]) | Activity (Mus musculus [8]) | Activity (Mus musculus [9]) | TD50 at 4 h [10] | Ratio TD50/ED50 (Mus musculus [11]) | ED50 (Mus musculus [12]) | Activity (Mus musculus [13]) | Activity (Mus musculus [14]) | Activity (Mus musculus [15]) | Activity (Mus musculus [16]) |
| --- | --- | --- | --- | --- | --- | --- | --- | --- | --- | --- | --- | --- | --- | --- | --- | --- |
| CC1(C)CC12NC(=O)N(CCNS(C)(=O)=O)C2=O (racemic) | Non-toxic | Non-toxic | inactive | inactive | inactive | inactive | – | – | – | – | – | – | – | – | – | – |
| CCCCS(=O)(=O)NCCN1C(=O)NC2(CC2(C)C)C1=O (racemic) | Non-toxic | Non-toxic | – | inactive | inactive | – | Active | Active | – | – | – | – | – | – | – | – |
| CN(C)S(=O)(=O)NCCN1C(=O)NC2(CC2(C)C)C1=O (racemic) | Non-toxic | Non-toxic | Active | inactive | inactive | inactive | – | – | – | – | – | – | – | – | – | – |
| CC1(C)CC12NC(=O)N(CCNS(=O)(=O)c1cccs1)C2=O (racemic) | – | Toxic | Active | inactive | inactive | – | – | Active | Toxic | – | – | – | – | – | – | – |
| Cc1ccc(S(=O)(=O)NCCN2C(=O)NC3(CC3(C)C)C2=O)cc1 (racemic) | Toxic | Non-toxic | – | Active | inactive | – | Active | – | – | 488 mg/kg | 12 | 40.6 mg/kg | Active | – | – | – |
| CC1(C)CC12NC(=O)N(CCNS(=O)(=O)c1ccc(F)cc1)C2=O (racemic) | Non-toxic | Non-toxic | – | Active | inactive | – | – | – | – | 561 mg/kg | 20 | 28.1 mg/kg | Active | Active | – | – |
| CC1(C)CC12NC(=O)N(CCNS(=O)(=O)c1ccc([N+](=O)[O-])cc1)C2=O (racemic) | Non-toxic | Non-toxic | inactive | inactive | inactive | Active | – | – | – | – | – | – | – | – | – | – |
| CC1(C)CC12NC(=O)N(CCNS(=O)(=O)c1cccc([N+](=O)[O-])c1)C2=O (racemic) | Toxic | Non-toxic | inactive | inactive | inactive | – | – | Active | – | – | – | – | – | – | – | – |
| CC(C)c1cc(C(C)C)c(S(=O)(=O)NCCN2C(=O)NC3(CC3(C)C)C2=O)c(C(C)C)c1 (racemic) | Non-toxic | Non-toxic | Active | inactive | inactive | – | – | Active | – | – | – | – | – | – | – | – |
| CCOC(=O)C1(NC(=O)NCCNS(C)(=O)=O)CC1(C)C (racemic) | Non-toxic | Non-toxic | inactive | inactive | inactive | inactive | – | – | – | – | – | – | – | – | – | – |
| CCCCS(=O)(=O)NCCNC(=O)NC1(C(=O)OCC)CC1(C)C (racemic) | Non-toxic | Non-toxic | inactive | inactive | inactive | – | – | Active | – | – | – | – | – | – | – | – |
| CCOC(=O)C1(NC(=O)NCCNS(=O)(=O)N(C)C)CC1(C)C (racemic) | Non-toxic | Non-toxic | inactive | inactive | inactive | inactive | – | – | – | – | – | – | – | – | – | – |
| CCOC(=O)C1(NC(=O)NCCNS(=O)(=O)c2cccs2)CC1(C)C (racemic) | Toxic | Non-toxic | inactive | inactive | inactive | Active | – | – | – | – | – | – | – | – | – | – |
| CCOC(=O)C1(NC(=O)NCCNS(=O)(=O)c2ccc(C)cc2)CC1(C)C (racemic) | Non-toxic | Non-toxic | Active | inactive | inactive | – | – | Active | – | – | – | – | – | – | – | – |
| CCOC(=O)C1(NC(=O)NCCNS(=O)(=O)c2ccc(F)cc2)CC1(C)C (racemic) | Non-toxic | Non-toxic | – | inactive | inactive | – | Active | Active | – | – | – | – | – | – | – | – |
| CCOC(=O)C1(NC(=O)NCCNS(=O)(=O)c2ccc([N+](=O)[O-])cc2)CC1(C)C (racemic) | Non-toxic | Non-toxic | inactive | inactive | inactive | inactive | – | – | – | – | – | – | – | – | – | – |
| CCOC(=O)C1(NC(=O)NCCNS(=O)(=O)c2cccc([N+](=O)[O-])c2)CC1(C)C (racemic) | Non-toxic | Non-toxic | inactive | inactive | inactive | inactive | – | – | – | – | – | – | – | – | – | – |
| CCOC(=O)C1(NC(=O)NCCNS(=O)(=O)c2c(C(C)C)cc(C(C)C)cc2C(C)C)CC1(C)C (racemic) | Non-toxic | Non-toxic | inactive | inactive | inactive | Active | – | – | – | – | – | – | – | – | – | – |
| CCC1(C)CC(=O)NC1=O (configuration not stated) [ETHOSUXIMIDE] | Non-toxic | Non-toxic | inactive | – | Active | inactive | – | – | – | – | – | – | – | – | Active | – |
| O=C1NC(=O)C(c2ccccc2)(c2ccccc2)N1 [PHENYTOIN] | – | – | – | inactive | inactive | – | – | – | Toxic | – | – | 9.2 mg/kg | Active | Active | – | Toxic |
